Measurements reported in patent US20100272674A1, “Hepatitis C Virus Inhibitors” (Bristol-Myers Squibb Company, priority 2008, published 2010).

Key:
[1] = target: T1, HCV NS3/4A protease complex (Hepatitis C virus genotype 1a, UniProt P27958, C1454S/C1711G); assay: FRET peptide assay to monitor HCV NS3/4A proteolytic activity; format: biochemical
T1 construct: DNA encoding the recombinant HCV NS3/4A protease complex (amino acids 1027 to 1711) for these strains; inferred from pET21b vector and Ni-NTA purification; made in house; host or cells: Escherichia coli BL21 (DE3)
T1 sequence (P27958 1027-1711 C1454S/C1711G, one chain of several): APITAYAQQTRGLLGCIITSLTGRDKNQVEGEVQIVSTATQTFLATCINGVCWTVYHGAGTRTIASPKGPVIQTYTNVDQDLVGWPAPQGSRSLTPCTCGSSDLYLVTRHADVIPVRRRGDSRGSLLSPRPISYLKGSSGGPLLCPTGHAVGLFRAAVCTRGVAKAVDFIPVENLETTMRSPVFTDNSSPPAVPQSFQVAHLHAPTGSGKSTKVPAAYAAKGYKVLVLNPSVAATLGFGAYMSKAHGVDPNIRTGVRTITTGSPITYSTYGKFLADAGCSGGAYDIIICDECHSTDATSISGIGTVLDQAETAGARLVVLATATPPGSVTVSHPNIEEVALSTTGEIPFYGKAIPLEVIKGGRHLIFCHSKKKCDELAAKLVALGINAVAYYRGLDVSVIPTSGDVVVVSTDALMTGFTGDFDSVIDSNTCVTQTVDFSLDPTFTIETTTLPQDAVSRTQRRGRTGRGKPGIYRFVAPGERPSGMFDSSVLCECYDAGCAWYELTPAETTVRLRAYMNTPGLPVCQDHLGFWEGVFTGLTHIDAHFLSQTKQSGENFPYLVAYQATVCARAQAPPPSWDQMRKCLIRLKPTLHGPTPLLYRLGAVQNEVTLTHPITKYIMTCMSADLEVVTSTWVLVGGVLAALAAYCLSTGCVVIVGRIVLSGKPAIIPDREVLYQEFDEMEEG
Source text: HCV NS3 protease complexes, derived from the BMS strain, H77 strain or J4L6S strain, were generated, as described below. These purified recombinant proteins were generated for use in a homogeneous assay (see below) to provide an indication of how effective compounds of the present disclosure would be in inhibiting HCV NS3 proteolytic activity.
Serum from an HCV-infected patient was obtained from Dr. T. Wright, San Francisco Hospital. An engineered full-length cDNA (compliment deoxyribonucleic acid) template of the HCV genome (BMS strain) was constructed from DNA fragments obtained by reverse transcription-PCR (RT-PCR) of serum RNA (ribonucleic acid) and using primers selected on the basis of homology between other genotype 1a strains. From the determination of the entire genome sequence, a genotype 1a was assigned to the HCV isolate according to the classification of Simmonds et al. (See P Simmonds, K A Rose, S Graham, S W Chan, F McOmish, B C Dow, E A Follett, P L Yap and H Marsden, J. Clin. Microbial., 31(6), 1493-1503 (1993)). […] The infectious clones, H77 (1a genotype) and J4L6S (1b genotype) were obtained from R. Purcell (NIH) and the sequences are published in Genbank (AAB67036, see Yanagi, M., Purcell, R. H., Emerson, S. U. and Bukh, J. Proc. Natl. Acad. Sci. USA. 94(16), 8738-8743 (1997); AF054247, see Yanagi, M., St Claire, M., Shapiro, M., Emerson, S. U., Purcell, R. H. and Bukh, J., Virology 244 (1), 161-172. (1998)).
The H77 and J4L6S strains were used for production of recombinant NS3/4A protease complexes. DNA encoding the recombinant HCV NS3/4A protease complex (amino acids 1027 to 1711) for these strains was manipulated as described by P. Gallinari et al. (see Gallinari P, Paolini C, Brennan D, Nardi C, Steinkuhler C, De Francesco R. Biochemistry. 38(17):5620-32, (1999)). Briefly, a three-lysine solubilizing tail was added at the 3′-end of the NS4A coding region. The cysteine in the P1 position of the NS4A-NS4B cleavage site (amino acid 1711) was changed to a glycine to avoid the proteolytic cleavage of the lysine tag. […]

[2] = test system: HCV 1b replicon (Renilla luciferase reporter) in HUH-7 cells; assay: HCV replicon luciferase reporter assay; format: cell-based, Hepatitis C virus (strain 1b); settings: Huh-7, 96 h, 4 days, read-out: Potency in the 1b luciferase assay
Source text: As a secondary assay, EC50 determinations from the replicon FRET assay were confirmed in a replicon luciferase reporter assay. Utilization of a replicon luciferase reporter assay was first described by Krieger et al (Krieger N, Lohmann V, and Bartenschlager R, J. Virol. 75(10):4614-4624 (2001)). The replicon construct described for our FRET assay was modified by inserting cDNA encoding a humanized form of the Renilla luciferase gene and a linker sequence fused directly to the 3′-end of the luciferase gene. This insert was introduced into the replicon construct using an Asc1 restriction site located in core, directly upstream of the neomycin marker gene. The adaptive mutation at position 1179 (serine to isoleucine) was also introduced (Blight K J, Kolykhalov, A A, Rice, C M, Science 290(5498):1972-1974). A stable cell line constitutively expressing this HCV replicon construct was generated as described above. The luciferase reporter assay was set up as described for the HCV replicon FRET assay with the following modifications. Following 4 days in a 37° C./5% CO2 incubator, cells were analyzed for Renilla Luciferase activity using the Promega Dual-Glo Luciferase Assay System. Media (100 μl) was removed from each well containing cells. To the remaining 50 μl of media, 50 μl of Dual-Glo Luciferase Reagent was added, and plates rocked for […] to 2 h at room temperature. Dual-Glo Stop & Glo Reagent (50 μl) was then added to each well, and plates were rocked again for an additional 10 min to 2 h at room temperature. Plates were read on a Packard TopCount NXT using a luminescence program.
The percentage inhibition was calculated using the formula below: […]
The values were graphed and analyzed using XLfit to obtain the EC50 value.

[3] = test system: HCV replicon in HUH-7 cells; assay: HCV replicon FRET assay; format: cell-based, Hepatitis C virus (strain 1b); settings: Hepatitis C virus, Huh-7, 96 h
Source text: An HCV replicon whole cell system was established as described by Lohmann V, Korner F, Koch J, Herian U, Theilmann L, Bartenschlager R., Science 285(5424):110-3 (1999). This system enabled us to evaluate the effects of our HCV Protease compounds on HCV RNA replication. Briefly, using the HCV strain 1b sequence described in the Lohmann paper (Assession number:AJ238799), an HCV cDNA was synthesized by Operon Technologies, Inc. (Alameda, Calif.), and the full-length replicon was then assembled in plasmid pGem9zf(+) (Promega, Madison, Wis.) using standard molecular biology techniques. […]
The HCV replicon FRET assay was developed to monitor the inhibitory effects of compounds described in the disclosure on HCV viral replication. […] After 4 days, cells were first assessed for cytotoxicity using alamar Blue (Trek Diagnotstic Systems) for a CC50 reading. The toxicity of compound (CC50) was determined by adding 1/10th volume of alamar Blue to the media incubating the cells. After 4 h, the fluorescence signal from each well was read, with an excitation wavelength at 530 nm and an emission wavelength of 580 nm, using the Cytofluor Series 4000 (Perspective Biosystems). […]

`COc1cc2ccc3cc2cc1CCCC(C)(C)CCOC(=O)N[C@H]1CCCCCCC[C@@H]2C[C@@]2(C(=O)NS(=O)(=O)C2CC2)NC(=O)[C@@H]2C[C@]3(OC)CN2C1=O` [Compound 3] showed an IC50 [1] of 1 nM and an EC50 [2] of 2.7 nM.
`COc1cc2ccc3cc2cc1C=CCC(C)(C)COC(=O)N[C@H]1CCCCC/C=C\[C@@H]2C[C@@]2(C(=O)NS(=O)(=O)C2CC2)NC(=O)[C@@H]2C[C@]3(OC)CN2C1=O` (mixture of isomers) [Compound 1] was tested, and the IC50 [1] was 1 nM, the EC50 [3] was 9.8 nM and the EC50 [2] was 1.6 nM.
`COc1cc2ccc3cc2cc1CCCCCCOC(=O)N[C@H]1CCCCCCC[C@@H]2C[C@@]2(C(=O)NS(=O)(=O)C2CC2)NC(=O)[C@@H]2C[C@]3(OC)CN2C1=O` [Compound 2] was tested, and the IC50 [1] was 5 nM and the EC50 [2] was 3.9 nM.
